In ChEMBL document CHEMBL1933051, “Cytotoxic bistetrahydrofuran annonaceous acetogenins from the seeds of Annona squamosa” (J Nat Prod, 2011):
In brackets after ≈: the same amount, converted by molar mass.

Key:
Format in all cases: functional, cell-based
A549 = test: Cytotoxicity against human A549 cells by MTT assay
SMMC-7721 = test: Cytotoxicity against human SMMC7721 cells by MTT assay
MCF7 = test: Cytotoxicity against human MCF7 cells by MTT assay
HepG2 = test: Cytotoxicity against human HepG2 cells by MTT assay
MKN-45 = test: Cytotoxicity against human MKN45 cells by MTT assay
HeLa = test: Cytotoxicity against human HeLa cells by MTT assay

| Compound | IC50 (A549) [µg/mL] | IC50 (SMMC-7721) [µg/mL] | IC50 (MCF7) [µg/mL] | IC50 (HepG2) [µg/mL] | IC50 (MKN-45) [µg/mL] | IC50 (HeLa) [µg/mL] |
| --- | --- | --- | --- | --- | --- | --- |
| CCCCCCCCCCCC(O)CCC[C@H](O)[C@H]1CC[C@H]([C@H]2CC[C@H]([C@H](O)CCCCCCCC3=C[C@H](C)OC3=O)O2)O1 (relative stereo) | 0.012 (≈ 0.0193 µM) | 0.057 (≈ 0.0915 µM) | 0.052 (≈ 0.0835 µM) | 0.022 (≈ 0.0353 µM) | 0.042 (≈ 0.0674 µM) | 0.025 (≈ 0.0401 µM) |
| CCCC[C@H](O)[C@H](O)[C@@H]1CC[C@@H]([C@H](O)CC[C@H](O)[C@@H]2CC[C@@H](CCCCCCCCCCCCCCC3=C[C@H](C)OC3=O)O2)O1 (relative stereo) | 0.31 (≈ 0.485 µM) | 0.11 (≈ 0.172 µM) | 0.5 (≈ 0.783 µM) | 0.17 (≈ 0.266 µM) | 0.14 (≈ 0.219 µM) | 0.57 (≈ 0.892 µM) |
| CCCCC[C@H](O)[C@@H]1CC[C@@H]([C@H](O)CC[C@H](O)[C@@H]2CC[C@@H](CCCCCCCCCCCC[C@@H](O)CC3=C[C@H](C)OC3=O)O2)O1 (relative stereo) | 0.68 (≈ 1.06 µM) | 0.39 (≈ 0.61 µM) | 0.75 (≈ 1.17 µM) | 0.8 (≈ 1.25 µM) | 0.59 (≈ 0.923 µM) | 1.5 (≈ 2.35 µM) |
| CCCCCCCCCC[C@@H](O)[C@@H]1CC[C@@H]([C@@H]2CC[C@@H]([C@H](O)CCCCCCCCCC(O)CC3=CC(C)OC3=O)O2)O1 (stereo partly drawn) [BULLATACIN] | 0.033 (≈ 0.0542 µM) | 0.0048 (≈ 0.00788 µM) | 0.043 (≈ 0.0706 µM) | 0.032 (≈ 0.0526 µM) | 0.053 (≈ 0.087 µM) | 0.034 (≈ 0.0558 µM) |
| O=c1[nH]cc(F)c(=O)[nH]1 [FLUOROURACIL] | 0.32 (≈ 2.46 µM) | 0.023 (≈ 0.177 µM) | 0.22 (≈ 1.69 µM) | 0.0082 (≈ 0.063 µM) | 0.36 (≈ 2.77 µM) | 0.14 (≈ 1.08 µM) |
| CCCCCC[C@@H](O)CCC[C@H](O)[C@@H]1CC[C@@H]([C@H](O)CC[C@@H](O)[C@@H]2CC[C@@H](CCCCCCCCCC3=C[C@@H](C)OC3=O)O2)O1 [Squamostatin-A] | 0.21 (≈ 0.329 µM) | 0.49 (≈ 0.767 µM) | 0.15 (≈ 0.235 µM) | 0.83 (≈ 1.3 µM) | 0.93 (≈ 1.46 µM) | 0.45 (≈ 0.704 µM) |
| CCCCCCCCCC[C@H](O)[C@@H]1CC[C@@H]([C@H](O)CC[C@@H](O)[C@@H]2CC[C@@H](CCCCCCCCCC3=C[C@@H](C)OC3=O)O2)O1 [Squamostatin-D] | 0.046 (≈ 0.0738 µM) | 0.25 (≈ 0.401 µM) | 0.11 (≈ 0.177 µM) | 0.56 (≈ 0.899 µM) | 0.87 (≈ 1.4 µM) | 0.1 (≈ 0.161 µM) |
| CCCCCCCCCC[C@@H](O)[C@H]1CC[C@H]([C@H]2CC[C@H]([C@H](O)CCCCCCCCC[C@H](O)CCC3=C[C@H](C)OC3=O)O2)O1 [UVARIGRANDIN A] | 0.08 (≈ 0.128 µM) | 0.0029 (≈ 0.00466 µM) | 0.096 (≈ 0.154 µM) | 0.78 (≈ 1.25 µM) | 0.069 (≈ 0.111 µM) | 0.07 (≈ 0.112 µM) |
